According to US8871812B2, “Therapeutic regimen comprising PEG-interferon, ribavirin and VX-950 for the treatment of hepatitis” (priority 2008, dated 2014):
Marks after values point to notes of the source that are not given here.

What was measured:
[1] = C208 Phase 2 study: safety, tolerability and discontinuations
[2] = system: HCV genotype 1; test: Phase 2 studies PROVE1 and PROVE2: sustained virologic response; type: in vivo, human; details: treatment-naïve genotype 1 patients
[3] = system: WT-HCV protease-SEAP; details: SCID mice expressing WT-HCV protease-SEAP; see WO 2005/025517; cited from earlier work
[4] = system: genotype 1 hepatitis C; test: Phase 1b 14-day study of VX-950 alone or with peginterferon alfa-2a, followed by peginterferon alfa-2a/ribavirin: HCV RNA; type: in vivo, human
Text: (§1) This study was designed to provide information on the kinetics of HCV following treatment with VX-950 and peginterferon alfa-2a administered over 14 days.
(§2) This study randomized twenty treatment-naïve patients with chronic genotype 1 hepatitis C infection to three dosing arms (Table 6). At the completion of the 14-day study, 19 of 20 patients chose to begin peginterferon alfa-2a/ribavirin, starting within 5 days of completing the 14-day dosing period; as the other one declined to take the combination of Peg-IRN-2a and ribavirin. Clinic visits were conducted at the discretion of the investigators, after completion of the 1-week and 12-week study-mandated follow-up visits. Nineteen patients have been followed through 24 weeks after the completion of the study dosing. After discussion with the treating physicians, ten (4 in VX-950 and 6 in VX-950/peginterferon alfa-2a) patients stopped peginterferon alfa-2a/ribavirin treatment at 24 weeks.

[5] = system: neopterin; test: Serum neopterin concentration (competitive ELISA) during 14-day VX-950 dosing; type: in vivo, human; details: 450 mg q8h and 1250 mg q12h dose groups, versus 750 mg q8h
Protocol: Accordingly, applicants determined the changes in serum neopterin concentration as a marker of monocyte/macrophage activity during administration of an inhibitor of (HCV) NS3·4A protease. As described herein, VX-950 was administered for 14 days in a randomized, double blind, placebo controlled, multiple-dose study in 34 patients infected with HCV genotype 1. Patients received VX-950 450 mg q8h (n=10), 750 mg q8h (n=8), 1250 mg q12h (n=10), or placebo (n=6). Serum neopterin concentrations were measured by a quantitative competitive ELISA (ELItest® Neopterin, Brahms, Hennigsdorf, Germany) at pretreatment, at day 7 and 14, and at day 10 of follow-up. The lower limit of detection (LLD) was 2 nmol/I. HCV RNA was assessed at frequent intervals during the study by real-time PCR (COBAS TAQMAN™ HCV Test; linear dynamic range of 3.0 ×10^1 to 2.0 ×10^8 HCV RNA IU/ml; LLD of 10 HCV RNA IU/ml; Roche Diagnostics, Branchburg, N.J.).

[6] = Oral bioavailability and plasma trough levels of VX-950; type: in vivo
Text: The trough level is the concentration that a drug drops down to in plasma just before next dose (i.e., the minimum concentration between doses). It is important, particularly in viral diseases, to maintain drug levels above a certain concentration to maintain appropriate inhibition of viral replication.
Accordingly, preferred pharmaceutical compositions of this invention are formulated for oral administration.

[7] = parameters: species or system human; details: in vivo
Text: as §1, §2

[8] = human, in vivo
[9] = system: WT HCVpro; test: IFN dependent gene expression / IFNβ promoter activity in Sendai virus infected Huh7 cells; type: cell-based
Text: IFNβ promoter activity decreases in response to Sendai virus stimulation in the presence of WT HCVpro.

[10] = male, human, in vivo
Protocol: VX-950 was examined in a randomized, double-blind, placebo-controlled single-dose escalation study. 25 healthy male volunteers were enrolled and each received multiple single doses of VX-950 (at least 7 days apart, 3 doses of VX-950 at increasing dose levels) and 1 dose of placebo.
A dose escalation scheme was used that combined dose doubling and modified Fibonacci to be aggressive in the lower dose range and conservative in the higher dose range.
A pharmacokinetics analysis was performed using the statistical moment approach.

[11] = TVR 750 mg q8h + Peg-IFN alfa-2a + RBV (n = 40)
[12] = TVR 750 mg q8h + Peg-IFN alfa-2b + RBV (n = 42)
[13] = TVR 1125 mg q12h + Peg-IFN alfa-2a + RBV (n = 40)
[14] = TVR 1125 mg q12h + Peg-IFN alfa-2b + RBV (n = 39)
[15] = 1-week F/U, on-study, Peg-IFN-2a/RBV, N = 7 / 8 / 4 per group

SMILES: CCC[C@H](NC(=O)[C@@H]1[C@H]2CCC[C@H]2CN1C(=O)[C@@H](NC(=O)[C@@H](NC(=O)c1cnccn1)C1CCCCC1)C(C)(C)C)C(=O)C(=O)NC1CC1 [VX-950]
- AE: Anemia [1, 11]: 18 (45) n (%)
- AE: Asthenia [1, 11]: 11 (28) n (%)
- AE: Decreased appetite [1, 11]: 8 (20) n (%)
- AE: Diarrhea [1, 11]: 10 (25) n (%)
- AE: Fatigue [1, 11]: 15 (38) n (%)
- AE: Headache [1, 11]: 13 (33) n (%)
- AE: Influenza-like illness [1, 11]: 15 (38) n (%)
- AE: Nausea [1, 11]: 18 (45) n (%)
- AE: Pruritus [1, 11]: 16 (40) n (%)
- AE: Pyrexia [1, 11]: 8 (20) n (%)
- AE: Rash [1, 11]: 26 (65) n (%)
- AE: Vomiting [1, 11]: 7 (18) n (%)
- AE: Anemia [1, 12]: 14 (33) n (%)
- AE: Asthenia [1, 12]: 16 (38) n (%)
- AE: Decreased appetite [1, 12]: 4 (10) n (%)
- AE: Diarrhea [1, 12]: 9 (21) n (%)
- AE: Fatigue [1, 12]: 15 (36) n (%)
- AE: Headache [1, 12]: 18 (43) n (%)
- AE: Influenza-like illness [1, 12]: 19 (45) n (%)
- AE: Nausea [1, 12]: 14 (33) n (%)
- AE: Pruritus [1, 12]: 21 (50) n (%)
- AE: Pyrexia [1, 12]: 14 (33) n (%)
- AE: Rash [1, 12]: 15 (36) n (%)
- AE: Vomiting [1, 12]: 5 (12) n (%)
- AE: Anemia [1, 13]: 14 (35) n (%)
- AE: Asthenia [1, 13]: 7 (18) n (%)
- AE: Decreased appetite [1, 13]: 6 (15) n (%)
- AE: Diarrhea [1, 13]: 12 (30) n (%)
- AE: Fatigue [1, 13]: 14 (35) n (%)
- AE: Headache [1, 13]: 13 (33) n (%)
- AE: Influenza-like illness [1, 13]: 11 (28) n (%)
- AE: Nausea [1, 13]: 16 (40) n (%)
- AE: Pruritus [1, 13]: 19 (48) n (%)
- AE: Pyrexia [1, 13]: 8 (20) n (%)
- AE: Rash [1, 13]: 16 (40) n (%)
- AE: Vomiting [1, 13]: 7 (18) n (%)
- AE: Anemia [1, 14]: 19 (49) n (%)
- AE: Asthenia [1, 14]: 14 (36) n (%)
- AE: Decreased appetite [1, 14]: 15 (39) n (%)
- AE: Diarrhea [1, 14]: 13 (33) n (%)
- AE: Fatigue [1, 14]: 15 (39) n (%)
- AE: Headache [1, 14]: 16 (41) n (%)
- AE: Influenza-like illness [1, 14]: 20 (51) n (%)
- AE: Nausea [1, 14]: 22 (56) n (%)
- AE: Pruritus [1, 14]: 22 (56) n (%)
- AE: Pyrexia [1, 14]: 11 (28) n (%)
- AE: Rash [1, 14]: 14 (36) n (%)
- AE: Vomiting [1, 14]: 12 (31) n (%)
- electrocardiographic or vital signs parameters ([1]; all T/PR arms): No relevant changes
- sustained virologic response rate, PROVE2 ([2]; 24-week TVR-containing regimen versus 48-week peginterferon and ribavirin (p=0.01)): 69%
- sustained virologic response rate, PROVE1 ([2]; 24-week TVR-containing regimen versus 48-week peginterferon and ribavirin (p=0.02)): 61%
- Effect on elevated ALT levels [3]: ameliorates elevated ALT levels
- HCV RNA below limit of detection (10 IU/mL) n [4, 15]: 1 n
- HCV RNA below limit of quantitation (30 IU/mL) n [4, 15]: 3 n
- HCV RNA below limit of quantitation (30 IU/mL) n ([4]; 12-week F/U, on-study, Peg-IFN-2a/RBV, N = 7 / 8 / 4 per group): 6 n
- Patients who achieved SVR ([4]; 14 days of VX-950 optionally with Peg-INF, followed by Peg-INF/ribavirin for additional 22 or 46 weeks): 10 of 15
- Undetectable HCV RNA at 24-week off study peg-IFN-2a/RBV treatment N ([4]; N = 7 / 8 / 4 per group): 7* N
- Patients with undetectable HCV RNA at week 24 ([4]; all patients who received VX-950 (alone or with peginterferon)): 15 patients
- Antiviral activity ([4]; as a single agent or in combination with peginterferon alfa-2a, 14 days): rapid and profound antiviral activity
- Patients who achieved SVR ([4]; at least 14 days of VX-950 (alone or with peginterferon), treated for 24 weeks in total): 7 of 10
- Patients who achieved SVR ([4]; at least 14 days of VX-950 (alone or with peginterferon), treated for 48 weeks in total): 3 of 5
- SVR in a patient receiving a 2 week treatment of VX-950 ([4]; in vivo): SVR was achieved
- Undetectable HCV RNA at 12 weeks follow-up after stopping peg-IFN-2a/RBV ([4]; patients who stopped peg-IFN-2a/RBV at week 24): 2 of 4
- change in mean neopterin levels [5]: decreases in mean neopterin levels were smaller
- Plasma trough levels ([6]; 750 mg every 8 hours): higher trough levels
- Oral bioavailability ([6]; in vivo, po): orally bioavailable
- Tolerability [7]: well tolerated
- overall proportion of TVR discontinuations for any reason ([8]; 4 weeks): 12%
- Treatment discontinuations (all drugs), Any reason ([8]; 12 weeks): 24 (15) n (%)
- Treatment discontinuations (all drugs), Due to AEs ([8]; 12 weeks): 13 (8) n (%)
- IFN dependent gene expression ([9]; Sendai virus infected Huh7 cells): restores IFN dependent gene expression
- IFNβ promoter activation ([9]; Sendai virus stimulation in the presence of WT HCVpro): overcomes the WT HCVpro mediated suppression of IFNβ promoter activation
- VX-950 eliminated unchanged in the urine [10]: Less than 2%
